# Measurements reported in the NIST ThermoML archive (doi:10.1016/j.jct.2004.07.027).
# ± gives the expanded uncertainty stated by the source.
# Experiment: mn = molality of the nth substance listed, in mol/kg
# Conditions: 350 kPa, Liquid, Extra sensitive DSC
smiles,measurement,setting,value
"C1COCCOCCOCCOCCOCCO1 [1,4,7,10,13,16-hexaoxacyclooctadecane] + O",apparent molar heat capacity,"278.15 K, m1 = 0.01001",748 ± 17 J/K/mol
same,apparent molar heat capacity,"278.15 K, m1 = 0.02001",740.4 ± 8.5 J/K/mol
same,apparent molar heat capacity,"278.15 K, m1 = 0.03002",741.5 ± 5.7 J/K/mol
same,apparent molar heat capacity,"278.15 K, m1 = 0.0401",742.3 ± 4.4 J/K/mol
same,apparent molar heat capacity,"278.15 K, m1 = 0.04995",746.2 ± 3.5 J/K/mol
same,apparent molar heat capacity,"278.15 K, m1 = 0.06015",746.9 ± 2.9 J/K/mol
same,apparent molar heat capacity,"278.15 K, m1 = 0.08002",744.3 ± 2.2 J/K/mol
same,apparent molar heat capacity,"278.15 K, m1 = 0.1224",740.8 ± 1.5 J/K/mol
same,apparent molar heat capacity,"278.15 K, m1 = 0.1472",738.5 ± 1.2 J/K/mol
same,apparent molar heat capacity,"278.15 K, m1 = 0.1935",734.51 ± 0.98 J/K/mol
same,apparent molar heat capacity,"278.15 K, m1 = 0.2925",725.83 ± 0.69 J/K/mol
same,apparent molar heat capacity,"283.15 K, m1 = 0.01001",768 ± 12 J/K/mol
same,apparent molar heat capacity,"283.15 K, m1 = 0.02001",764.2 ± 6.1 J/K/mol
same,apparent molar heat capacity,"283.15 K, m1 = 0.03002",764.8 ± 4.1 J/K/mol
same,apparent molar heat capacity,"283.15 K, m1 = 0.0401",765.6 ± 3.1 J/K/mol
same,apparent molar heat capacity,"283.15 K, m1 = 0.04995",769.1 ± 2.5 J/K/mol
same,apparent molar heat capacity,"283.15 K, m1 = 0.06015",769.3 ± 2.1 J/K/mol
same,apparent molar heat capacity,"283.15 K, m1 = 0.08002",767.2 ± 1.6 J/K/mol
same,apparent molar heat capacity,"283.15 K, m1 = 0.1224",764.3 ± 1.1 J/K/mol
same,apparent molar heat capacity,"283.15 K, m1 = 0.1472",762.46 ± 0.93 J/K/mol
same,apparent molar heat capacity,"283.15 K, m1 = 0.1935",759.11 ± 0.76 J/K/mol
same,apparent molar heat capacity,"283.15 K, m1 = 0.2925",751.64 ± 0.55 J/K/mol
same,apparent molar heat capacity,"288.15 K, m1 = 0.01001",788 ± 11 J/K/mol
same,apparent molar heat capacity,"288.15 K, m1 = 0.02001",782.4 ± 5.3 J/K/mol
same,apparent molar heat capacity,"288.15 K, m1 = 0.03002",783.2 ± 3.5 J/K/mol
same,apparent molar heat capacity,"288.15 K, m1 = 0.0401",785.4 ± 2.7 J/K/mol
same,apparent molar heat capacity,"288.15 K, m1 = 0.04995",788.8 ± 2.2 J/K/mol
same,apparent molar heat capacity,"288.15 K, m1 = 0.06015",788.7 ± 1.8 J/K/mol
same,apparent molar heat capacity,"288.15 K, m1 = 0.08002",786.6 ± 1.4 J/K/mol
same,apparent molar heat capacity,"288.15 K, m1 = 0.1224",784.29 ± 0.93 J/K/mol
same,apparent molar heat capacity,"288.15 K, m1 = 0.1472",782.67 ± 0.83 J/K/mol
same,apparent molar heat capacity,"288.15 K, m1 = 0.1935",779.7 ± 0.67 J/K/mol
same,apparent molar heat capacity,"288.15 K, m1 = 0.2925",773.51 ± 0.48 J/K/mol
same,apparent molar heat capacity,"293.15 K, m1 = 0.01001",805.9 ± 9.8 J/K/mol
same,apparent molar heat capacity,"293.15 K, m1 = 0.02001",800.2 ± 4.8 J/K/mol
same,apparent molar heat capacity,"293.15 K, m1 = 0.03002",800.8 ± 3.2 J/K/mol
same,apparent molar heat capacity,"293.15 K, m1 = 0.0401",803.3 ± 2.5 J/K/mol
same,apparent molar heat capacity,"293.15 K, m1 = 0.04995",806.1 ± 2 J/K/mol
same,apparent molar heat capacity,"293.15 K, m1 = 0.06015",806 ± 1.7 J/K/mol
same,apparent molar heat capacity,"293.15 K, m1 = 0.08002",804.3 ± 1.3 J/K/mol
same,apparent molar heat capacity,"293.15 K, m1 = 0.1224",802.22 ± 0.86 J/K/mol
same,apparent molar heat capacity,"293.15 K, m1 = 0.1472",800.93 ± 0.76 J/K/mol
same,apparent molar heat capacity,"293.15 K, m1 = 0.1935",798.36 ± 0.61 J/K/mol
same,apparent molar heat capacity,"293.15 K, m1 = 0.2925",793.29 ± 0.44 J/K/mol
same,apparent molar heat capacity,"298.15 K, m1 = 0.01001",820.2 ± 9.5 J/K/mol
same,apparent molar heat capacity,"298.15 K, m1 = 0.02001",817 ± 4.6 J/K/mol
same,apparent molar heat capacity,"298.15 K, m1 = 0.03002",817.3 ± 3.1 J/K/mol
same,apparent molar heat capacity,"298.15 K, m1 = 0.0401",820 ± 2.4 J/K/mol
same,apparent molar heat capacity,"298.15 K, m1 = 0.04995",822.2 ± 1.9 J/K/mol
same,apparent molar heat capacity,"298.15 K, m1 = 0.06015",822.4 ± 1.6 J/K/mol
same,apparent molar heat capacity,"298.15 K, m1 = 0.08002",820.7 ± 1.2 J/K/mol
same,apparent molar heat capacity,"298.15 K, m1 = 0.1224",819.28 ± 0.83 J/K/mol
same,apparent molar heat capacity,"298.15 K, m1 = 0.1472",818.39 ± 0.77 J/K/mol
same,apparent molar heat capacity,"298.15 K, m1 = 0.1935",816.04 ± 0.56 J/K/mol
same,apparent molar heat capacity,"298.15 K, m1 = 0.2925",811.91 ± 0.4 J/K/mol
same,apparent molar heat capacity,"303.15 K, m1 = 0.01001",836.9 ± 9.2 J/K/mol
same,apparent molar heat capacity,"303.15 K, m1 = 0.02001",832.9 ± 4.4 J/K/mol
same,apparent molar heat capacity,"303.15 K, m1 = 0.03002",833.1 ± 3 J/K/mol
same,apparent molar heat capacity,"303.15 K, m1 = 0.0401",836.5 ± 2.3 J/K/mol
same,apparent molar heat capacity,"303.15 K, m1 = 0.04995",838.6 ± 1.9 J/K/mol
same,apparent molar heat capacity,"303.15 K, m1 = 0.06015",838.4 ± 1.5 J/K/mol
same,apparent molar heat capacity,"303.15 K, m1 = 0.08002",836.6 ± 1.1 J/K/mol
same,apparent molar heat capacity,"303.15 K, m1 = 0.1224",835.6 ± 0.8 J/K/mol
same,apparent molar heat capacity,"303.15 K, m1 = 0.1472",835.12 ± 0.75 J/K/mol
same,apparent molar heat capacity,"303.15 K, m1 = 0.1935",832.91 ± 0.55 J/K/mol
same,apparent molar heat capacity,"303.15 K, m1 = 0.2925",829.51 ± 0.39 J/K/mol
